system: OC-314; assay: cells; format: functional, cell-based, Homo sapiens; conditions: Homo sapiens, OC-314
Description: SANGER: Inhibition of human OC-314 cell growth in a cell viability assay.

| Compound | IC50 [µM] |
| --- | --- |
| Nc1cccc2c1CN(C1CCC(=O)NC1=O)C2=O (configuration not stated) [LENALIDOMIDE] | > 5 |

system: ABC-1; assay: cells; format: functional, cell-based, Homo sapiens; conditions: Homo sapiens, ABC-1;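 further: growth inhibition of human ABC-1 cells, read out by a cell viability assay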
Description: SANGER: Inhibition of human ABC-1 cell growth in a cell viability assay.

| Compound | IC50 [µM] |
| --- | --- |
| Nc1cccc2c1CN(C1CCC(=O)NC1=O)C2=O (configuration not stated) [LENALIDOMIDE] | > 5 |

system: SW1783; assay: cells; format: functional, cell-based, Homo sapiens; conditions: Homo sapiens, SW1783;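 further: cell growth inhibition measured with a viability assay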
Description: SANGER: Inhibition of human SW1783 cell growth in a cell viability assay.

| Compound | IC50 [µM] |
| --- | --- |
| Nc1cccc2c1CN(C1CCC(=O)NC1=O)C2=O (configuration not stated) [LENALIDOMIDE] | > 5 |

system: DBTRG-05MG; assay: cells; format: functional, cell-based, Homo sapiens; conditions: Homo sapiens, DBTRG-05MG;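 further: cell viability assay measuring growth inhibition of human DBTRG-05MG cells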
Description: SANGER: Inhibition of human DBTRG-05MG cell growth in a cell viability assay.

| Compound | IC50 [µM] |
| --- | --- |
| Nc1cccc2c1CN(C1CCC(=O)NC1=O)C2=O (configuration not stated) [LENALIDOMIDE] | > 5 |

system: HTC-C3; assay: cells; format: functional, cell-based, Homo sapiens; conditions: Homo sapiens, HTC-C3;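 further: inhibition of cell growth, read out with a cell viability assay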
Description: SANGER: Inhibition of human HTC-C3 cell growth in a cell viability assay.

| Compound | IC50 [µM] |
| --- | --- |
| Nc1cccc2c1CN(C1CCC(=O)NC1=O)C2=O (configuration not stated) [LENALIDOMIDE] | > 5 |

system: VMRC-RCZ; assay: cells; format: functional, cell-based, Homo sapiens; conditions: Homo sapiens, VMRC-RCZ;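 further: growth inhibition measured with a cell viability assay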
Description: SANGER: Inhibition of human VMRC-RCZ cell growth in a cell viability assay.

| Compound | IC50 [µM] |
| --- | --- |
| Nc1cccc2c1CN(C1CCC(=O)NC1=O)C2=O (configuration not stated) [LENALIDOMIDE] | > 5 |

system: CHL-1; assay: cells; format: functional, cell-based, Homo sapiens; conditions: Homo sapiens, CHL-1;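 further: cell growth inhibition, read out with a cell viability assay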
Description: SANGER: Inhibition of human CHL-1 cell growth in a cell viability assay.

| Compound | IC50 [µM] |
| --- | --- |
| Nc1cccc2c1CN(C1CCC(=O)NC1=O)C2=O (configuration not stated) [LENALIDOMIDE] | > 5 |

system: HT-1080; assay: cells; format: functional, cell-based, Homo sapiens; conditions: Homo sapiens, HT-1080
Description: SANGER: Inhibition of human HT-1080 cell growth in a cell viability assay.

| Compound | IC50 [µM] |
| --- | --- |
| Nc1cccc2c1CN(C1CCC(=O)NC1=O)C2=O (configuration not stated) [LENALIDOMIDE] | > 5 |

system: HSC-3; assay: cells; format: functional, cell-based, Homo sapiens; conditions: Homo sapiens, HSC-3
Description: SANGER: Inhibition of human HSC-3 cell growth in a cell viability assay.

| Compound | IC50 [µM] |
| --- | --- |
| Nc1cccc2c1CN(C1CCC(=O)NC1=O)C2=O (configuration not stated) [LENALIDOMIDE] | > 5 |

system: 786-0; assay: cells; format: functional, cell-based, Homo sapiens; conditions: Homo sapiens
Description: SANGER: Inhibition of human 786-0 cell growth in a cell viability assay.

| Compound | IC50 [µM] |
| --- | --- |
| Nc1cccc2c1CN(C1CCC(=O)NC1=O)C2=O (configuration not stated) [LENALIDOMIDE] | > 5 |

system: HOS; assay: cells; format: functional, cell-based, Homo sapiens; conditions: Homo sapiens, HOS;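 further: growth inhibition of human HOS cells, read out with a cell viability assay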
Description: SANGER: Inhibition of human HOS cell growth in a cell viability assay.

| Compound | IC50 [µM] |
| --- | --- |
| Nc1cccc2c1CN(C1CCC(=O)NC1=O)C2=O (configuration not stated) [LENALIDOMIDE] | > 5 |

system: PANC-08-13; assay: cells; format: functional, cell-based, Homo sapiens; conditions: Homo sapiens, PANC-08-13;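 further: cell growth inhibition, measured with a cell viability assay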
Description: SANGER: Inhibition of human PANC-08-13 cell growth in a cell viability assay.

| Compound | IC50 [µM] |
| --- | --- |
| Nc1cccc2c1CN(C1CCC(=O)NC1=O)C2=O (configuration not stated) [LENALIDOMIDE] | > 5 |

system: RT-112; assay: cells; format: functional, cell-based, Homo sapiens; conditions: Homo sapiens, RT-112
Description: SANGER: Inhibition of human RT-112 cell growth in a cell viability assay.

| Compound | IC50 [µM] |
| --- | --- |
| Nc1cccc2c1CN(C1CCC(=O)NC1=O)C2=O (configuration not stated) [LENALIDOMIDE] | > 5 |

system: BCPAP; assay: cells; format: functional, cell-based, Homo sapiens; conditions: Homo sapiens, BCPAP;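 further: growth inhibition of BCPAP cells, read out in a cell viability assay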
Description: SANGER: Inhibition of human BCPAP cell growth in a cell viability assay.

| Compound | IC50 [µM] |
| --- | --- |
| Nc1cccc2c1CN(C1CCC(=O)NC1=O)C2=O (configuration not stated) [LENALIDOMIDE] | > 5 |

system: HuO9; assay: cells; format: functional, cell-based, Homo sapiens; conditions: Homo sapiens, HuO9;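 further: growth inhibition of HuO9 cells, read out with a cell viability assay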
Description: SANGER: Inhibition of human HuO9 cell growth in a cell viability assay.

| Compound | IC50 [µM] |
| --- | --- |
| Nc1cccc2c1CN(C1CCC(=O)NC1=O)C2=O (configuration not stated) [LENALIDOMIDE] | > 5 |

system: MC-IXC; assay: cells; format: functional, cell-based, Homo sapiens; conditions: Homo sapiens, MC-IXC;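 further: growth inhibition of MC-IXC cells, read out with a cell viability assay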
Description: SANGER: Inhibition of human MC-IXC cell growth in a cell viability assay.

| Compound | IC50 [µM] |
| --- | --- |
| Nc1cccc2c1CN(C1CCC(=O)NC1=O)C2=O (configuration not stated) [LENALIDOMIDE] | > 5 |

system: A2058; assay: cells; format: functional, cell-based, Homo sapiens; conditions: Homo sapiens, A2058;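 further: reduction of A2058 cell growth, read out with a viability assay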
Description: SANGER: Inhibition of human A2058 cell growth in a cell viability assay.

| Compound | IC50 [µM] |
| --- | --- |
| Nc1cccc2c1CN(C1CCC(=O)NC1=O)C2=O (configuration not stated) [LENALIDOMIDE] | > 5 |

system: HCC38; assay: cells; format: functional, cell-based, Homo sapiens; conditions: Homo sapiens, HCC38;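 further: cell viability assay on the human HCC38 cell line, with IC50 marking the concentration that inhibits cell growth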
Description: SANGER: Inhibition of human HCC38 cell growth in a cell viability assay.

| Compound | IC50 [µM] |
| --- | --- |
| Nc1cccc2c1CN(C1CCC(=O)NC1=O)C2=O (configuration not stated) [LENALIDOMIDE] | > 5 |

system: HT-3; assay: cells; format: functional, cell-based, Homo sapiens; conditions: Homo sapiens, HT-3;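 further: growth inhibition measured with a cell viability readout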
Description: SANGER: Inhibition of human HT-3 cell growth in a cell viability assay.

| Compound | IC50 [µM] |
| --- | --- |
| Nc1cccc2c1CN(C1CCC(=O)NC1=O)C2=O (configuration not stated) [LENALIDOMIDE] | > 5 |

system: UACC-893; assay: cells; format: functional, cell-based, Homo sapiens; conditions: Homo sapiens, UACC-893
Description: SANGER: Inhibition of human UACC-893 cell growth in a cell viability assay.

| Compound | IC50 [µM] |
| --- | --- |
| Nc1cccc2c1CN(C1CCC(=O)NC1=O)C2=O (configuration not stated) [LENALIDOMIDE] | > 5 |

system: AN3-CA; assay: cells; format: functional, cell-based, Homo sapiens; conditions: Homo sapiens, AN3-CA;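 further: growth inhibition of human AN3-CA cells measured by a cell viability assay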
Description: SANGER: Inhibition of human AN3-CA cell growth in a cell viability assay.

| Compound | IC50 [µM] |
| --- | --- |
| Nc1cccc2c1CN(C1CCC(=O)NC1=O)C2=O (configuration not stated) [LENALIDOMIDE] | > 5 |

system: DOK; assay: cells; format: functional, cell-based, Homo sapiens; conditions: Homo sapiens, DOK;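 further: cell viability assay read-out, values reflect inhibition of cell growth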
Description: SANGER: Inhibition of human DOK cell growth in a cell viability assay.

| Compound | IC50 [µM] |
| --- | --- |
| Nc1cccc2c1CN(C1CCC(=O)NC1=O)C2=O (configuration not stated) [LENALIDOMIDE] | > 5 |

system: A-431; assay: cells; format: functional, cell-based, Homo sapiens; conditions: Homo sapiens, A-431;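 further: growth inhibition of A-431 cells, determined with a cell viability read-out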
Description: SANGER: Inhibition of human A431 cell growth in a cell viability assay.

| Compound | IC50 [µM] |
| --- | --- |
| Nc1cccc2c1CN(C1CCC(=O)NC1=O)C2=O (configuration not stated) [LENALIDOMIDE] | > 5 |

system: COLO-679; assay: cells; format: functional, cell-based, Homo sapiens; conditions: Homo sapiens, COLO-679
Description: SANGER: Inhibition of human COLO-679 cell growth in a cell viability assay.

| Compound | IC50 [µM] |
| --- | --- |
| Nc1cccc2c1CN(C1CCC(=O)NC1=O)C2=O (configuration not stated) [LENALIDOMIDE] | > 5 |

system: C-33-A; assay: cells; format: functional, cell-based, Homo sapiens; conditions: Homo sapiens, C-33-A;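 further: cell viability assay measuring growth inhibition of C-33-A cells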
Description: SANGER: Inhibition of human C-33-A cell growth in a cell viability assay.

| Compound | IC50 [µM] |
| --- | --- |
| Nc1cccc2c1CN(C1CCC(=O)NC1=O)C2=O (configuration not stated) [LENALIDOMIDE] | > 5 |

system: NCI-H292; assay: cells; format: functional, cell-based, Homo sapiens; conditions: Homo sapiens, NCI-H292;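 further: growth inhibition of NCI-H292 cells, read out with a cell viability assay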
Description: SANGER: Inhibition of human NCI-H292 cell growth in a cell viability assay.

| Compound | IC50 [µM] |
| --- | --- |
| Nc1cccc2c1CN(C1CCC(=O)NC1=O)C2=O (configuration not stated) [LENALIDOMIDE] | > 5 |

system: FaDu; assay: cells; format: functional, cell-based, Homo sapiens; conditions: Homo sapiens, FaDu;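 further: cell viability readout of growth inhibition in FaDu cells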
Description: SANGER: Inhibition of human FADU cell growth in a cell viability assay.

| Compound | IC50 [µM] |
| --- | --- |
| Nc1cccc2c1CN(C1CCC(=O)NC1=O)C2=O (configuration not stated) [LENALIDOMIDE] | > 5 |

system: J82; assay: cells; format: functional, cell-based, Homo sapiens; conditions: Homo sapiens, J82;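 further: growth inhibition of J82 cells, read out with a cell viability assay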
Description: SANGER: Inhibition of human J82 cell growth in a cell viability assay.

| Compound | IC50 [µM] |
| --- | --- |
| Nc1cccc2c1CN(C1CCC(=O)NC1=O)C2=O (configuration not stated) [LENALIDOMIDE] | > 5 |

system: MKN-1; assay: cells; format: functional, cell-based, Homo sapiens; conditions: Homo sapiens, MKN-1;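 further: growth inhibition of human MKN1 cells, read out by a cell viability measurement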
Description: SANGER: Inhibition of human MKN1 cell growth in a cell viability assay.

| Compound | IC50 [µM] |
| --- | --- |
| Nc1cccc2c1CN(C1CCC(=O)NC1=O)C2=O (configuration not stated) [LENALIDOMIDE] | > 5 |

system: SNU-387; assay: cells; format: functional, cell-based, Homo sapiens; conditions: Homo sapiens, SNU-387
Description: SANGER: Inhibition of human SNU-387 cell growth in a cell viability assay.

| Compound | IC50 [µM] |
| --- | --- |
| Nc1cccc2c1CN(C1CCC(=O)NC1=O)C2=O (configuration not stated) [LENALIDOMIDE] | > 5 |

system: DK-MG; assay: cells; format: functional, cell-based, Homo sapiens; conditions: Homo sapiens, DK-MG;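 further: growth inhibition of DK-MG cells, read out with a cell viability assay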
Description: SANGER: Inhibition of human DK-MG cell growth in a cell viability assay.

| Compound | IC50 [µM] |
| --- | --- |
| Nc1cccc2c1CN(C1CCC(=O)NC1=O)C2=O (configuration not stated) [LENALIDOMIDE] | > 5 |

system: A204; assay: cells; format: functional, cell-based, Homo sapiens; conditions: Homo sapiens, A204;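 further: growth inhibition of human A204 cells, read out with a cell viability assay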
Description: SANGER: Inhibition of human A204 cell growth in a cell viability assay.

| Compound | IC50 [µM] |
| --- | --- |
| Nc1cccc2c1CN(C1CCC(=O)NC1=O)C2=O (configuration not stated) [LENALIDOMIDE] | > 5 |

system: H-EMC-SS; assay: cells; format: functional, cell-based, Homo sapiens; conditions: Homo sapiens, H-EMC-SS
Description: SANGER: Inhibition of human H-EMC-SS cell growth in a cell viability assay.

| Compound | IC50 [µM] |
| --- | --- |
| Nc1cccc2c1CN(C1CCC(=O)NC1=O)C2=O (configuration not stated) [LENALIDOMIDE] | > 5 |

system: COLO-680N; assay: cells; format: functional, cell-based, Homo sapiens; conditions: Homo sapiens, COLO-680N;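 further: cell viability assay used to measure inhibition of COLO-680N cell growth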
Description: SANGER: Inhibition of human COLO-680N cell growth in a cell viability assay.

| Compound | IC50 [µM] |
| --- | --- |
| Nc1cccc2c1CN(C1CCC(=O)NC1=O)C2=O (configuration not stated) [LENALIDOMIDE] | > 5 |

system: BT-20; assay: cells; format: functional, cell-based, Homo sapiens; conditions: Homo sapiens, BT-20;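 further: cell viability assay measuring suppression of growth in human BT-20 cells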
Description: SANGER: Inhibition of human BT-20 cell growth in a cell viability assay.

| Compound | IC50 [µM] |
| --- | --- |
| Nc1cccc2c1CN(C1CCC(=O)NC1=O)C2=O (configuration not stated) [LENALIDOMIDE] | > 5 |

system: BHY; assay: cells; format: functional, cell-based, Homo sapiens; conditions: Homo sapiens, BHY;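 further: cell growth inhibition read out by a viability assay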
Description: SANGER: Inhibition of human BHY cell growth in a cell viability assay.

| Compound | IC50 [µM] |
| --- | --- |
| Nc1cccc2c1CN(C1CCC(=O)NC1=O)C2=O (configuration not stated) [LENALIDOMIDE] | > 5 |

system: NCI-H2052; assay: cells; format: functional, cell-based, Homo sapiens; conditions: Homo sapiens, NCI-H2052;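 further: growth inhibition of NCI-H2052 cells, read out with a cell viability assay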
Description: SANGER: Inhibition of human NCI-H2052 cell growth in a cell viability assay.

| Compound | IC50 [µM] |
| --- | --- |
| Nc1cccc2c1CN(C1CCC(=O)NC1=O)C2=O (configuration not stated) [LENALIDOMIDE] | > 5 |

system: NCI-H1563; assay: cells; format: functional, cell-based, Homo sapiens; conditions: Homo sapiens, NCI-H1563;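 further: growth inhibition of human NCI-H1563 cells, read out with a cell viability assay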
Description: SANGER: Inhibition of human NCI-H1563 cell growth in a cell viability assay.

| Compound | IC50 [µM] |
| --- | --- |
| Nc1cccc2c1CN(C1CCC(=O)NC1=O)C2=O (configuration not stated) [LENALIDOMIDE] | > 5 |

system: NCI-H2029; assay: cells; format: functional, cell-based, Homo sapiens; conditions: Homo sapiens, NCI-H2029;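 further: Read-out is a viability assay on the cultured cells, and IC50 is the concentration that suppresses cell growth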
Description: SANGER: Inhibition of human NCI-H2029 cell growth in a cell viability assay.

| Compound | IC50 [µM] |
| --- | --- |
| Nc1cccc2c1CN(C1CCC(=O)NC1=O)C2=O (configuration not stated) [LENALIDOMIDE] | > 5 |

system: SW837; assay: cells; format: functional, cell-based, Homo sapiens; conditions: Homo sapiens, SW837;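 further: growth inhibition of SW837 cells, determined with a cell viability assay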
Description: SANGER: Inhibition of human SW837 cell growth in a cell viability assay.

| Compound | IC50 [µM] |
| --- | --- |
| Nc1cccc2c1CN(C1CCC(=O)NC1=O)C2=O (configuration not stated) [LENALIDOMIDE] | > 5 |

system: CP50-MEL-B; assay: cells; format: functional, cell-based, Homo sapiens; conditions: Homo sapiens, CP50-MEL-B;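 further: growth inhibition of the human cell line, measured with a cell viability read-out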
Description: SANGER: Inhibition of human CP50-MEL-B cell growth in a cell viability assay.

| Compound | IC50 [µM] |
| --- | --- |
| Nc1cccc2c1CN(C1CCC(=O)NC1=O)C2=O (configuration not stated) [LENALIDOMIDE] | > 5 |

system: MHH-ES-1; assay: cells; format: functional, cell-based, Homo sapiens; conditions: Homo sapiens, MHH-ES-1;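 further: cell growth inhibition measured by a cell viability assay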
Description: SANGER: Inhibition of human MHH-ES-1 cell growth in a cell viability assay.

| Compound | IC50 [µM] |
| --- | --- |
| Nc1cccc2c1CN(C1CCC(=O)NC1=O)C2=O (configuration not stated) [LENALIDOMIDE] | > 5 |

Source: ChEMBL document CHEMBL1201861, “Genomics of Drug Sensitity in Cancer screening data, Wellcome Trust Sanger Institute”
